Data: PMC9100920, “Crosstalk between β2- and α2-Adrenergic Receptors in the Regulation of B16F10 Melanoma Cell Proliferation” (International Journal of Molecular Sciences, 2022)
Like-named read-outs stand apart in the source and are kept apart here.

Molecular target: T1, β2-AR (Mus musculus, UniProt P18762)
T1 construct: gene Adrb2
Assay: GloSensor cAMP concentration-response in B16F10 cells (endogenous receptor), agonist
Type: cell-based

T1 sequence (P18762 whole entry): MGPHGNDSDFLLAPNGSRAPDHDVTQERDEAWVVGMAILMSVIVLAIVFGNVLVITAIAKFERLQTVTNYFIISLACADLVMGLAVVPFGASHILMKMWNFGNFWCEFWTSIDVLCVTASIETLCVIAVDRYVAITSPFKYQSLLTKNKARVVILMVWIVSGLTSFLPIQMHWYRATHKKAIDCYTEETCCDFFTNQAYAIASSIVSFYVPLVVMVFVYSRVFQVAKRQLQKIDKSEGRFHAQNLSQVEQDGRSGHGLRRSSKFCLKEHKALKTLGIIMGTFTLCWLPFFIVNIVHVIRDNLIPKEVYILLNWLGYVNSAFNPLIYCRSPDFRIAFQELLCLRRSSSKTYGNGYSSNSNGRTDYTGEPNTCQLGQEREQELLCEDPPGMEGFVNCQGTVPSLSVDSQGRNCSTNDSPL

EC50 (read-out: EC50)	Compound	EC50
	CNC[C@H](O)c1ccc(O)c(O)c1 [EPI, epinephrine]	45 nM
284 nM	NC[C@H](O)c1ccc(O)c(O)c1 [NE, norepinephrine]	
